Measurements published in patent US7816511B2, “Remedies for heart failure” (Asubio Pharma Co., Ltd., priority 2000, dated 2010).

Tests used:
[1] = test system: Sprague-Dawley rats; test: Echocardiography 3 weeks after co-transfection of rOSF-2 plasmid and antisense/sense/scramble nucleotides into the rat heart; format: in vivo; conditions: 3 weeks post transfection; for EDV: end-diastolic volume / ESV: end-systolic volume / FS: fractional shortening of the inner diameter of the left ventricle / IVPWD / IVSTD: thickness of the end-diastolic interventricular septum / LVIDD: inner diameter of the end-diastolic left ventricle / LVIDS: inner diameter of the end-systolic left ventricle / LVPWS: thickness of the posterior wall of the end-systolic left ventricle / TVSTS: echocardiography, nucleotides co-injected with rOSF-2 plasmid
Method: HVJ-liposomes were prepared as described in Example 6 by adding 50 μl of HMG-1,-2 mixture (1 mg/ml, Wako Pure Chemical Industries) to 200 μg of the plasmid solution prepared in Example 6.1 and 1.4 mg of the antisense nucleotide solution selected in Example 7. Sense and scramble nucleotide sequences were also prepared in the same manner.
The HVJ-liposome/DNA solution was injected into the left ventricle of the heart (apical and lateral sites) of 13-weeks old Sprague-Dawley rats (male) in an amount of 100 μl each at 3 sites (a total volume of 300 μl) using a 30-gauge needle (rOSF-2/antisense group, rOSF-2/sense group and rOSF-2/scramble group). Similarly, pcDNA4/rOSF-2 was injected as a positive control group and pcDNA4/His-Myc vector was injected as a negative control group.
After anesthesia with ketamine (50 mg/ml) and xylazine (10 mg/ml) at 3 weeks post transfection, echocardiography was performed using Core Vision Pro SSA 350A (probe: 7 MHz, Toshiba).

[2] = test system: OSF-2 promoter; test: Reporter assay using COS-1 cells with human OSF-2 reporter plasmid pGL3-hOSFgE (luciferase); format: cell-based; conditions: 24 hours after compound addition, pGL3-control (SV40 promoter) as control
From the text: A region extending from about 2 kb upstream of the initiation codon to immediately before the initiation codon was amplified by PCR using human OSF-2 gene #2 obtained in Example 10-1 as a template and primers (12) 5′-[…]-3′ (SEQ ID NO: 25) and (13) 5′-[…]-3′ (SEQ ID NO: 26). Primer (13) was designed to insert a restriction enzyme XhoI recognition site into the 5′ end, and this amplified fragment was digested with restriction enzymes SpeI and XhoI to give a fragment of about 2 kb, which was then ligated to a vector fragment of pGL3-enhancer (Promega) digested with restriction enzymes NheI and XhoI located upstream of the luciferase gene using a ligation kit (TAKARA SHUZO CO., LTD.) to give pGL3-hOSFgE. The nucleotide sequence of the insert was determined according to the method of Example 1-5 to confirm that it was identical with the nucleotide sequence determined in Example 10-1.
COS-1 cells were plated on a 96-well plate at a density of 3×10^4 cells/well and the plate was incubated at 37° C. for 16-24 hours and then transiently transfected with OSF-2 reporter plasmid pGL3-hOSFgE shown in Example 10 using LipofectAMINE 2000 reagent (GIBCO), and after incubation for 24 hours at 37° C., the medium was replaced. […] Luciferase activity was assayed according to the protocol of a luciferase assay system (Promega) and detected with 1420 multilabel counter (Wallac). […]

[3] = test system: OSF-2 mRNA; test: Expression analysis of OSF-2 mRNA using MC3T3-E1 cells (real-time PCR); format: cell-based, murine; conditions: 30 μM, 24 hours
[4] = test system: Dahl-S rats; test: Survival of Dahl-S heart failure model rats after antisense transfection into the heart; format: in vivo, rat; conditions: 30 weeks post transfection, Dahl-S rats on 8% salt diet
Method: HVJ-liposomes were prepared as described in Example 6.2 by adding 50 μl of HMG-1,-2 mixture (1 mg/ml, Wako Pure Chemical Industries) to 1.4 mg of a solution of the antisense nucleotides selected in Example 7 dissolved in BSS buffer. Sense nucleotides were also prepared in the same manner.
The HVJ-liposome/DNA solution was injected into the left ventricle of the heart (apical and lateral sites) of 13-weeks old Dahl-S rats (DIS/Eis, Eisai, male) raised on an 8% salt diet from the age of 8 weeks in an amount of 75 μl each at 4 sites (a total volume of 300 μl) using a 30-gauge needle (antisense group: 13 rats, sense group: 13 rats).

[5] = test system: Myc-His-rOSF-2 fused protein; test: Selection of antisense nucleotide sequences: ELISA of Myc-His-rOSF-2 fused protein in transfected COS-1 cells; format: cell-based, rat
From the text: Five antisense nucleotide sequences shown as SEQ ID NOs: 12-16 were designed by selecting regions containing an initiation codon AUG but not containing three continuous guanines (triplet G) and incapable of forming a hairpin structure or self-annealing and synthesized by an outer contractor. All the antisense nucleotide sequences are phosphorothioate type.
The Myc-His-rOSF-2 fused protein expression vector pcDNA4/Myc-His/rOSF-2 described in Example 5 was introduced into COS-1 cells, and the antisense nucleotide sequences prepared in 1 above were introduced to screen antisense nucleotide sequences inhibiting the expression of Myc-His-rOSF 2 fused protein. The expression level of Myc-His-rOSF-2 fused protein was assayed by ELISA (Enzyme-Linked Immunosorbent Assay) using a Myc-specific monoclonal antibody (Invitrogen). Specifically, COS-1 cells were plated on a 96-well plate at a density of 2×10^4 cells/well. […]
The culture supernatant was immobilized to an EIA/RIA plate (Costar) by incubating 50 μl thereof at 37° C. for 1-2 hours, and washed twice with 200 μl of Dulbecco's phosphate-buffered saline containing 0.1% Tween (PBST). […] After incubation with 50 μl of TMB (3,3′,5,5′-tetramethylbenzidine) reagent (KPL) at room temperature for 30 minutes, the reaction was stopped by adding 50 μl of 0.1 N sulfuric acid and the absorbance at 450 nm was measured with a microplate reader. […]

## scramble: scramble nucleotide sequence with the 5′, 3′ direction reversed to SEQ ID NO: 12 (GTCCCGACTTCTACCAAGGA; listed as DNA, chemistry not given here)
[1]
  EDV: end-diastolic volume: 307.6 ± 10.4 µL
  ESV: end-systolic volume: 73.4 ± 7.5 µL
  FS: fractional shortening of the inner diameter of the left ventricle: 46.7 ± 1.6%
  IVPWD: 1.68 ± 0.07 mm
  IVSTD: thickness of the end-diastolic interventricular septum: 1.26 ± 0.12 mm
  LVIDD: inner diameter of the end-diastolic left ventricle: 7.60 ± 11 mm
  LVIDS: inner diameter of the end-systolic left ventricle: 4.06 ± 0.18 mm
  LVPWS: thickness of the posterior wall of the end-systolic left ventricle: 2.66 ± 0.07 mm
  TVSTS: 2.60 ± 0.15 mm

## Cc1ccccc1CNc1ncnc2c1ncn2[C@@H]1O[C@H](CO)[C@@H](O)[C@H]1O [Metrifudil, N-[(2-methylphenyl)methyl]-adenosine]
[2]
  luciferase activity: inhibit luciferase activity specifically to OSF-2 promoter
[3]
  expression of OSF-2 mRNA (standardized by GAPDH mRNA): inhibited the expression of OSF-2 mRNA

## sense: sense nucleotide sequence that is a sense strand corresponding to SEQ ID NO: 12 (CAGGGCTGAAGATGGTTCCT; listed as DNA, chemistry not given here)
[1]
  EDV: end-diastolic volume: 339.2 ± 17.9 µL
  ESV: end-systolic volume: 82.4 ± 10.2 µL
  FS: fractional shortening of the inner diameter of the left ventricle: 46.7 ± 1.6%
  IVPWD: 1.46 ± 0.11 mm
  IVSTD: thickness of the end-diastolic interventricular septum: 1.26 ± 0.07 mm
  LVIDD: inner diameter of the end-diastolic left ventricle: 7.93 ± 0.18 mm
  LVIDS: inner diameter of the end-systolic left ventricle: 4.24 ± 0.22 mm
  LVPWS: thickness of the posterior wall of the end-systolic left ventricle: 2.30 ± 0.15 mm
  TVSTS: 2.50 ± 0.07 mm
[4]
  survival rate: 61.5%

## SEQ ID NO: 12: phosphorothioate antisense nucleotide sequence containing the initiation codon region of rat OSF-2; the one selected in Example 7 (AGGAACCATCTTCAGCCCTG; all phosphorothioate, sugars by position and methylation of C not given here)
[1]
  cardiac dilatation (LVIDD, LVIDS vs. positive control, sense and scramble groups): inhibited cardiac dilatation
  EDV: end-diastolic volume: 210.0 ± 6.8 µL
  ESV: end-systolic volume: 43.3 ± 5.1 µL
  FS: fractional shortening of the inner diameter of the left ventricle: 49.5 ± 1.7%
  IVPWD: 2.20 ± 0.13 mm
  IVSTD: thickness of the end-diastolic interventricular septum: 1.68 ± 0.12 mm
  LVIDD: inner diameter of the end-diastolic left ventricle: 6.42 ± 0.09 mm
  LVIDS: inner diameter of the end-systolic left ventricle: 3.25 ± 0.15 mm
  LVPWS: thickness of the posterior wall of the end-systolic left ventricle: 2.80 ± 0.17 mm
  TVSTS: 3.07 ± 0.16 mm
[4]
  survival rate: 100%
[5]; final concentration 10 nM, FIG. 3
  inhibitory activity against OSF-2 protein production: stronger inhibitory activity against OSF-2 protein production than the sense and scramble nucleotide sequences
[5]; final concentration 100 nM, 3 days, FIG. 2
  inhibitory activity against OSF-2 protein production: inhibited the expression the most strongly

## Nc1nc(Cl)nc2c1ncn2[C@@H]1O[C@H](COP(=O)([O-])OP(=O)([O-])OP(=O)([O-])[O-])[C@@H](O)[C@H]1O.[Na+].[Na+].[Na+].[Na+] [2-chloroadenosine 5′-triphosphate tetrasodium]
[2]
  luciferase activity: inhibit luciferase activity specifically to OSF-2 promoter
[3]
  expression of OSF-2 mRNA (standardized by GAPDH mRNA): inhibited the expression of OSF-2 mRNA
